Data taken from ChEMBL document CHEMBL1909046, “DrugMatrix in vitro pharmacology data”.

Legend:
[1] = DRUGMATRIX: Glutamate, NMDA, Phencyclidine radioligand binding (ligand: [3H] TCP); type: cell membranes, Rattus norvegicus, Wistar, Cerebral cortex, Membrane; details: Not Active = under 50% inhibition at 10 µM
D(4) dopamine receptor = biological target: T1, D(4) dopamine receptor (Homo sapiens, UniProt P21917); assay: DRUGMATRIX: Dopamine D4.2 radioligand binding (ligand: [3H] Spiperone); type: cell membranes, Membrane; details: cho-k1; Not Active = under 50% inhibition at 10 µM
T1 sequence (P21917 whole entry): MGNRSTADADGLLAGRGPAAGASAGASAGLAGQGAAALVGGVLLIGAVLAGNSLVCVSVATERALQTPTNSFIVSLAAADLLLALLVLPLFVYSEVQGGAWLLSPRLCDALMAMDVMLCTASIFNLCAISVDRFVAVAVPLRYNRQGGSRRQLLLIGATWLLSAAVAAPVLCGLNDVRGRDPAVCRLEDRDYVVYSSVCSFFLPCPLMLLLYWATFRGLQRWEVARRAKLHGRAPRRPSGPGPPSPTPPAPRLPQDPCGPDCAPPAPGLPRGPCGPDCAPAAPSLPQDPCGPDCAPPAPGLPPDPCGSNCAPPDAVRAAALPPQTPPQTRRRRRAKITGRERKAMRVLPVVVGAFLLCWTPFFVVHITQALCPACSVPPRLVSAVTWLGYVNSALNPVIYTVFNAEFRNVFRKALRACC

B2 bradykinin receptor = biological target: T2, B2 bradykinin receptor (Homo sapiens, UniProt P30411); type: cell membranes, Membrane; details: chem-1; note: in other assays of this panel Not Active means under 50% inhibition at 10 µM
T2 sequence (P30411 whole entry): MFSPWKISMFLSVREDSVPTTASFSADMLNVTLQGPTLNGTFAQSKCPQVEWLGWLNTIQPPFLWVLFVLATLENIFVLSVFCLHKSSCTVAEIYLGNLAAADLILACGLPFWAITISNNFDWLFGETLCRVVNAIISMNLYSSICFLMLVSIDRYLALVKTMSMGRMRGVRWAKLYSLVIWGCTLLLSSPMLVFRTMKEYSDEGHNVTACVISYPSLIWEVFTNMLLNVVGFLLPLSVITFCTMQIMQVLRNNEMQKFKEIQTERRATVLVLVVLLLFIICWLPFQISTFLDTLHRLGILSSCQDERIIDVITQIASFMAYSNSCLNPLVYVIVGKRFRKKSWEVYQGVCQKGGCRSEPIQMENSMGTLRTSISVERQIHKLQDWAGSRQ

D(3) dopamine receptor = D(3) dopamine receptor (Homo sapiens, UniProt P35462); assay: DRUGMATRIX: Dopamine D3 radioligand binding (ligand: [3H] Spiperone); type: cell membranes, CHO, Membrane; details: cho
Chain of D(3) dopamine receptor (P35462 whole entry): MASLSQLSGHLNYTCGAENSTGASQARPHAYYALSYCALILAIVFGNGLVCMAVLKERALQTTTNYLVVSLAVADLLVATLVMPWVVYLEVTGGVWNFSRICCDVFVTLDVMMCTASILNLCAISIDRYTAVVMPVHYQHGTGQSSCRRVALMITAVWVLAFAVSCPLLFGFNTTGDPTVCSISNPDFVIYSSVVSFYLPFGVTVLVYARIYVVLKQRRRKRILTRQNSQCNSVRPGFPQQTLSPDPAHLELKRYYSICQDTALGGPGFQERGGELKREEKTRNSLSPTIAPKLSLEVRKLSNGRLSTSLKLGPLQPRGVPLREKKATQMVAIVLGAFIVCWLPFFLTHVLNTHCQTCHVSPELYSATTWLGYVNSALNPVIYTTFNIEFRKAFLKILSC

[2] = DRUGMATRIX: beta-Lactamase enzyme inhibition (substrate: Nitrocefin); set-up: species or system Bacillus cereus; details: Not Active = under 50% inhibition at 10 µM
[3] = biological target: Beta-2 adrenergic receptor (Homo sapiens, UniProt P07550); assay: DRUGMATRIX: Adrenergic beta2 radioligand binding (ligand: [3H] CGP-12177); type: cell membranes, Membrane; details: cho; Not Active = under 50% inhibition at 10 µM
[4] = biological target: T3, C-X-C chemokine receptor type 1 (Homo sapiens, UniProt P25024); note: in other assays of this panel Not Active means under 50% inhibition at 10 µM
T3 sequence (P25024 whole entry): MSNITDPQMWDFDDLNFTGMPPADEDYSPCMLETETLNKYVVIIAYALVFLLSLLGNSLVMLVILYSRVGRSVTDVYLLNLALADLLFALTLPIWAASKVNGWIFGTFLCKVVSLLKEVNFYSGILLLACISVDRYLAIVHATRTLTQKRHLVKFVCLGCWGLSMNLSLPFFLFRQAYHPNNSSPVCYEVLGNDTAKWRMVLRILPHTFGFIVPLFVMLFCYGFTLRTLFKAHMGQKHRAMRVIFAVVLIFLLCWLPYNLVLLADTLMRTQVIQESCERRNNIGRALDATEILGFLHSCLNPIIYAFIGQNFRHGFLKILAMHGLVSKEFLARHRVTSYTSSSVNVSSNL

CCC1=C[C@@H]2CN(C1)Cc1c([nH]c3ccccc13)[C@@](C(=O)OC)(c1cc3c(cc1OC)N(C)[C@H]1[C@@](O)(C(=O)OC)[C@H](OC(C)=O)[C@]4(CC)C=CCN5CC[C@]31[C@@H]54)C2 [VINORELBINE]
Not Active: IC50 [1] | Ki [1] | IC50 (D(4) dopamine receptor) | IC50 (B2 bradykinin receptor) | IC50 (D(3) dopamine receptor) | IC50 [2] | Ki [2] | IC50 [3] | IC50 [4]

CADMIUM DICHLORIDE
Not Active: IC50 [1] | Ki [1] | IC50 (D(4) dopamine receptor) | Ki (D(4) dopamine receptor) | IC50 (B2 bradykinin receptor) | Ki (B2 bradykinin receptor) | IC50 (D(3) dopamine receptor) | Ki (D(3) dopamine receptor) | IC50 [2] | Ki [2] | IC50 [3] | Ki [3] | IC50 [4] | Ki [4]
